# According to patent US20250145665A1, “MACROCYCLIC PEPTIDES USEFUL AS MODULATORS OF TNF ALPHA” (Bristol-Myers Squibb Company, priority 2023, published 2025):
# Starred links: 1 amine or outer side, 2 acyl side, 3 side chain; linkers in the order of their positions; H or OH if unused. Positions of bridges follow the written chain, without caps; N, C: chain ends. Non-standard residues stand in square brackets, D forms with d. Residues, ends and D or L forms follow the SMILES beside them. *: point of attachment. X52 = Cc1c(C(=O)O)cccc1C(=O)Nc1ccc(-c2ccc(C[C@H](N[*:1])C(=O)[*:2])cc2)cc1; X5 = Cn1nc(C(=O)Nc2ccc(-c3ccc(C[C@H](N[*:1])C(=O)[*:2])cc3)cc2)c2ccccc21; dArg(Nω-CH2C6H4-3-CH2Gua) = N=C(N)NCc1cccc(CNC(=N)NCCC[C@@H](N)C(=O)O)c1; Bip(4'-NHBz) = N[C@@H](Cc1ccc(-c2ccc(NC(=O)c3ccccc3)cc2)cc1)C(=O)O; Bip(4'-NH) = O=C([C@H](Cc1ccc(-c2ccc(N[*:3])cc2)cc1)N[*:1])[*:2]; dArg(ω-(3-HO-benzyl)) = N=C(NCCC[C@@H](N)C(=O)O)NCc1cccc(O)c1; dArg(ω-Bn(3-CH2OH)) = N=C(NCCC[C@@H](N)C(=O)O)NCc1cccc(CO)c1; Indazole3carbonyl(1-CH2COOH) = O=C(O)Cn1nc(C(=O)*)c2ccccc21; Bip(4'-COOH) = N[C@@H](Cc1ccc(-c2ccc(C(=O)O)cc2)cc1)C(=O)O; Bip(4'-NHAc) = CC(=O)Nc1ccc(-c2ccc(C[C@H](N)C(=O)O)cc2)cc1; Indole3carbonyl(1-CH2COOH) = O=C(O)Cn1cc(C(=O)*)c2ccccc21; Ala(morpholin-4-yl) = N[C@@H](CN1CCOCC1)C(=O)O; Benzoyl(3-OCH2COOH) = O=C(O)COc1cccc(C(=O)*)c1; Phe(3-CONH2) = NC(=O)c1cccc(C[C@H](N)C(=O)O)c1; Bip = N[C@@H](Cc1ccc(-c2ccccc2)cc1)C(=O)O; Cha = N[C@@H](CC1CCCCC1)C(=O)O; Chg = N[C@H](C(=O)O)C1CCCCC1; Sar = CNCC(=O)O
# Target: TNFα (Homo sapiens, UniProt P01375)
# Test: TNF-Induced HEK-Blue Assay
# Assay type: cell-based
# Details: not given
# Chain of TNFα (P01375 77-233 limits assumed): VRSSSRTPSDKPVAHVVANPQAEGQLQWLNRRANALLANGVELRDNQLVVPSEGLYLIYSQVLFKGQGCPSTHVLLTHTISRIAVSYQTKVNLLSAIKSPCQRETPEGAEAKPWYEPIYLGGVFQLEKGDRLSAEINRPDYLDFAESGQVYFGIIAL
row,SMILES,IC50
1,CC(C)C[C@@H]1NC(=O)[C@H](CCCNC(=N)N)NC(=O)[C@H](C(C)C)NC(=O)[C@@H]2CCCN2C(=O)[C@H](C(C)C)NC(=O)[C@@H](CCCNC(=N)NCc2cccc(O)c2)NC(=O)[C@H](CC(=O)O)NC(=O)[C@@H]2CCCN2C(=O)CN(C)C(=O)[C@H](Cc2ccc(-c3ccc(NC(=O)c4cn(CC(=O)O)c5ccccc45)cc3)cc2)NC(=O)[C@H](Cc2ccc(-c3ccccc3)cc2)NC(=O)[C@H](CN2CCOCC2)NC(=O)CSC[C@@H](C(=O)NCC(N)=O)NC1=O [Example 565] ({CH2CO}-[Ala(morpholin-4-yl)][Bip][Bip(4'-NH)](Indole3carbonyl(1-CH2COOH))[Sar]PD[dArg(ω-(3-HO-benzyl))]VPVRLCG-NH2; thioether N-13),< 50 nM
2,CC(C)C[C@@H]1NC(=O)[C@H](CCCNC(=N)N)NC(=O)[C@H](C(C)C)NC(=O)[C@@H]2CCCN2C(=O)[C@H](C(C)C)NC(=O)[C@@H](CCCNC(=N)NCc2cccc(CNC(=N)N)c2)NC(=O)[C@H](CC(=O)O)NC(=O)[C@@H]2CCCN2C(=O)CN(C)C(=O)[C@H](Cc2ccc(-c3ccc(NC(=O)c4nn(CC(=O)O)c5ccccc45)cc3)cc2)NC(=O)[C@H](Cc2ccc(-c3ccccc3)cc2)NC(=O)[C@H](CN2CCOCC2)NC(=O)CSC[C@@H](C(=O)NCC(N)=O)NC1=O [Example 512] ({CH2CO}-[Ala(morpholin-4-yl)][Bip][Bip(4'-NH)](Indazole3carbonyl(1-CH2COOH))[Sar]PD[dArg(Nω-CH2C6H4-3-CH2Gua)]VPVRLCG-NH2; thioether N-13),< 50 nM
3,CC(C)C[C@@H]1NC(=O)[C@H](Cc2c[nH]cn2)NC(=O)[C@H](C2CCCCC2)NC(=O)[C@@H]2CCCN2C(=O)[C@H](C(C)C)NC(=O)[C@@H](CCCNC(=N)N)NC(=O)[C@H](CC(=O)O)NC(=O)[C@H](Cc2cnc[nH]2)NC(=O)CN(C)C(=O)[C@H](Cc2ccc(-c3ccc(NC(=O)c4ccccc4)cc3)cc2)NC(=O)[C@H](Cc2ccc(-c3ccccc3)cc2)NC(=O)[C@H](CC2CCCCC2)NC(=O)CSC[C@@H](C(=O)NCC(N)=O)NC1=O [Example 513] ({CH2CO}-[Cha][Bip][Bip(4'-NHBz)][Sar]HD[dR]VP[Chg]HLCG-NH2; thioether N-13),< 50 nM

# Same assay, conditions: HEK-Blue-CD40L cells, NF-kB-driven secreted alkaline phosphatase reporter; TNFα 0.5 ng/ml; 18 h; read-out: TNF induced HEK-Blue assay IC50 value
row,IC50,SMILES
1,< 50 nM,CC(C)C[C@@H]1NC(=O)[C@H](Cc2cccc(C(N)=O)c2)NC(=O)[C@H](C(C)C)NC(=O)[C@@H]2CCCN2C(=O)[C@H](C(C)C)NC(=O)[C@@H](CCCNC(=N)N)NC(=O)[C@H](CC(=O)O)NC(=O)[C@H](Cc2cnc[nH]2)NC(=O)CN(C)C(=O)[C@H](Cc2ccc(-c3ccc(NC(=O)c4cccc(OCC(=O)O)c4)cc3)cc2)NC(=O)[C@H](Cc2ccc(-c3ccc(C(=O)O)cc3)cc2)NC(=O)[C@H](CC2CCCCC2)NC(=O)CSC[C@@H](C(=O)NCC(N)=O)NC1=O [Example 587] ({CH2CO}-[Cha][Bip(4'-COOH)][Bip(4'-NH)](Benzoyl(3-OCH2COOH))[Sar]HD[dR]VPV[Phe(3-CONH2)]LCG-NH2; thioether N-13)
2,50 to 200 nM,CC[C@H](C)[C@@H]1NC(=O)[C@@H](CCCNC(=N)N)NC(=O)[C@H](CC(=O)O)NC(=O)[C@H](Cc2cnc[nH]2)NC(=O)CN(C)C(=O)[C@H](Cc2ccc(-c3ccc(NC(=O)c4cccc(C(=O)O)c4C)cc3)cc2)NC(=O)[C@H](Cc2ccc(-c3ccccc3)cc2)NC(=O)[C@H](CC2CCCCC2)NC(=O)CSC[C@@H](C(=O)NCC(N)=O)NC(=O)[C@H](CC(C)C)NC(=O)[C@H](Cc2cnc[nH]2)NC(=O)[C@H](C(C)C)NC(=O)[C@@H]2CCCN2C1=O [Example 447] ({CH2CO}-[Cha][Bip][X52][Sar]HD[dR]IPVHLCG-NH2; thioether N-13)
3,200 to 2000 nM,CC(=O)Nc1ccc(-c2ccc(C[C@@H]3NC(=O)[C@H](Cc4ccccc4)NC(=O)CSC[C@@H](C(=O)NCC(N)=O)NC(=O)[C@H](CC(C)C)NC(=O)[C@H](CCCNC(=N)N)NC(=O)[C@H](C(C)C)NC(=O)[C@@H]4CCCN4C(=O)[C@H](C(C)C)NC(=O)[C@H](CCCNC(=N)N)NC(=O)[C@H](CC(=O)O)NC(=O)[C@@H]4CCCN4C(=O)CN(C)C(=O)[C@H](Cc4ccc(-c5ccccc5)cc4)NC3=O)cc2)cc1 [Example 38] ({CH2CO}-F[Bip(4'-NHAc)][Bip][Sar]PDRVPVRLCG-NH2; thioether N-13)

row,SMILES,IC50
1,CC[C@H](C)[C@@H]1NC(=O)[C@@H](CCCNC(=N)NCc2cccc(CO)c2)NC(=O)[C@H](CC(=O)O)NC(=O)[C@H](Cc2cnc[nH]2)NC(=O)CN(C)C(=O)[C@H](Cc2ccc(-c3ccc(NC(=O)c4nn(C)c5ccccc45)cc3)cc2)NC(=O)[C@H](Cc2ccc(-c3ccccc3)cc2)NC(=O)[C@H](CC2CCCCC2)NC(=O)CSC[C@@H](C(=O)NCC(N)=O)NC(=O)[C@H](CC(C)C)NC(=O)[C@H](Cc2cnc[nH]2)NC(=O)[C@H](C(C)C)NC(=O)[C@@H]2CCCN2C1=O [Example 478] ({CH2CO}-[Cha][Bip][X5][Sar]HD[dArg(ω-Bn(3-CH2OH))]IPVHLCG-NH2; thioether N-13),50 to 200 nM
